Laboratory results published in PMC9603770, “Broad-Spectrum Inhibitors against Class A, B, and C Type β-Lactamases to Block the Hydrolysis against Antibiotics: Kinetics and Structural Characterization” (Microbiology Spectrum, 2022).

Tests used:
Format in all cases: biochemical
KPC-2 [1] = biological target: T1, KPC-2 (Klebsiella pneumoniae, UniProt Q9F663); experiment: IC50, nitrocefin hydrolysis; details: 100 μΜ nitrocefin
T1 construct: made in house; host or cells: E. coli (DH5 and BL21(DE3) named; pET-28a)
T1 sequence (Q9F663 25-293, looked up, species assumed): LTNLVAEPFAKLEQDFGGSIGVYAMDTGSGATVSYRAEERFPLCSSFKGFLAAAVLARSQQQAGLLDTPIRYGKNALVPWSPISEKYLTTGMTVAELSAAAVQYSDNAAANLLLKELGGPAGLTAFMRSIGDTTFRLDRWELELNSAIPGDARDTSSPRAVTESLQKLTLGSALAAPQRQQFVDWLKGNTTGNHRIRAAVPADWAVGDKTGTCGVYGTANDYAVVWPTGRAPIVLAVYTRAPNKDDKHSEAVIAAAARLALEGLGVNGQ
Protocol: (§1) The IC50 values of all the proteins were calculated to determine the efficacy of each inhibitor. The IC50 values were calculated for the proteins NDM-1, Amp-C, KPC-2, CTX-M-15, SHV-1, and TEM-1 with each of its inhibitors (D63, D2148, and D2573) to compare their efficacies at a fixed concentration 100 μΜ of nitrocefin (Table 7).
(§2) Overexpression of proteins was done by adding 0.5 mM IPTG (isopropyl-β-D-thiogalactopyranoside), and purification of the NDM-1, SHV-1, TEM-1, CTX-M-15, KPC-2, and Amp-C recombinant protein was performed with an Ni-NTA affinity column. […] The final concentration of the protein was estimated with a NanoDrop instrument.
(§3) The direct competition between the β-lactamase substrate, nitrocefin, and their inhibitors were used to determine the IC50 and Ki values. Using a Shimadzu UV-VIS spectrophotometer UV-1800, variable quantities of inhibitor D63, D2148, and D2573 (0 to 3 μM), fixed concentrations of purified proteins (1 nM), and nitrocefin substrate (100 μM) were used in a reaction at 486 nm. […] The IC50 value is the inhibitor concentration that inhibits enzyme hydrolytic activity by 50% (50% inhibitory concentration).

CTX-M-15 [2] = biological target: T2, CTX-M-15 (Escherichia coli, UniProt Q9EXV5); experiment: IC50, nitrocefin hydrolysis; details: 100 μΜ nitrocefin
T2 construct: made in house; host or cells: E. coli (DH5 and BL21(DE3) named)
T2 sequence (Q9EXV5 29-291, species assumed): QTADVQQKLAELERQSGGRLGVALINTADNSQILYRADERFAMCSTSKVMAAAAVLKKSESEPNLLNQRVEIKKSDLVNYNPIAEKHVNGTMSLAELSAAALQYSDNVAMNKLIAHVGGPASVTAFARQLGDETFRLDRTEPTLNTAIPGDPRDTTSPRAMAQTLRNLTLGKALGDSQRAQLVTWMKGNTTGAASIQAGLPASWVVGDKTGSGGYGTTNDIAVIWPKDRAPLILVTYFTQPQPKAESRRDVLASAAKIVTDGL
Protocol: as §1, §2, §3

NDM-1 [3] = biological target: T3, NDM-1 (Klebsiella pneumoniae, UniProt C7C422); experiment: IC50, nitrocefin hydrolysis; details: 100 μΜ nitrocefin
T3 construct: made in house; host or cells: E. coli (DH5 and BL21(DE3) named)
T3 sequence (C7C422 29-270, looked up, species assumed): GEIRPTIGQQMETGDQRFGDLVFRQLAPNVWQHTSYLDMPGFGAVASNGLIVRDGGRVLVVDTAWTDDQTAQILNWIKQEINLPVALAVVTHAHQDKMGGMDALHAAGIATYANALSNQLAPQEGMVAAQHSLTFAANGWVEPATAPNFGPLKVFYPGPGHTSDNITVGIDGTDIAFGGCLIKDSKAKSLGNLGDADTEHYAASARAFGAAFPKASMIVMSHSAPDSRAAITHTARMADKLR
Protocol: as §1, §2, §3

TEM-1 [4] = biological target: T4, TEM-1 (Escherichia coli, UniProt P62593); experiment: IC50, nitrocefin hydrolysis; details: 100 μΜ nitrocefin
T4 construct: made in house; host or cells: E. coli (DH5 and BL21(DE3) named; pET-28a)
T4 sequence (P62593 24-286 limits assumed): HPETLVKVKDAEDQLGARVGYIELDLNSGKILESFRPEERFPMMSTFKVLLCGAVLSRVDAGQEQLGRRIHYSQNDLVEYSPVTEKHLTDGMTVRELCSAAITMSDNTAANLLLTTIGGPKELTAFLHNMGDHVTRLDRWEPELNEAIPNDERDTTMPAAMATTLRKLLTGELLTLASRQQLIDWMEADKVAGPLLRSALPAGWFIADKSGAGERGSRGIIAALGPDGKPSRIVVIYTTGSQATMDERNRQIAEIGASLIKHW
Protocol: as §1, §2, §3

Amp-C [5] = biological target: T5, Amp-C (Escherichia coli, UniProt P00811); experiment: IC50, nitrocefin hydrolysis
T5 construct: made in house; host or cells: E. coli (DH5 and BL21(DE3) named; pET-28a)
T5 sequence (P00811 20-377): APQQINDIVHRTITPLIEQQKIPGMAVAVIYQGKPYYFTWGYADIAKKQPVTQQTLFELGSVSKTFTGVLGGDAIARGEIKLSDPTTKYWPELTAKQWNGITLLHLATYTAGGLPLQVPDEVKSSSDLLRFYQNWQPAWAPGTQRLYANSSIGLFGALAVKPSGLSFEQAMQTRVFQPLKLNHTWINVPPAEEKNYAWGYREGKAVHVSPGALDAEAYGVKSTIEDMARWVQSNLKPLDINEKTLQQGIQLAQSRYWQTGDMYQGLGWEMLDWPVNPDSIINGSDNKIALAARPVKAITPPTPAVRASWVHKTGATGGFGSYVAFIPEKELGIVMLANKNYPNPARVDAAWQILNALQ
Protocol: as §1, §2, §3

SHV-1 [6] = biological target: T6, SHV-1 (Klebsiella pneumoniae, UniProt P0AD64); experiment: IC50, nitrocefin hydrolysis
T6 construct: made in house; host or cells: E. coli (DH5 and BL21(DE3) named; pET-28a)
T6 sequence (P0AD64 22-286): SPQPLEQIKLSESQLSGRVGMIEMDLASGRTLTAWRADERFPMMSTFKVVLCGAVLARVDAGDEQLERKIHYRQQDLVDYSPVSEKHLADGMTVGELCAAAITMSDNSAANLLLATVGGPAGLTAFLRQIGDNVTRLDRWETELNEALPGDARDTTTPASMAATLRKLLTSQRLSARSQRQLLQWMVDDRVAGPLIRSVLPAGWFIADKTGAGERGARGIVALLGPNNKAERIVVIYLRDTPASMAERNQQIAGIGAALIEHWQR
Protocol: as §1, §2, §3

KPC-2 [7] = biological target: T1, KPC-2; experiment: Steady-state kinetics of antibiotic hydrolysis with inhibitor; details: inhibitor concentration as per IC50
Protocol: (§4) The enzyme kinetics parameters (Km, and kcat) for all six proteins/enzymes in combination with different antibiotics (cefotaxime, imipenem, and meropenem), were calculated. The concentration of inhibitors, D63, D2148, and D2573, was as per the IC50 value (Fig. 5); the kinetic parameters are listed in Table 8.
(§5) The steady-state kinetics of all six proteins were determined using the antibiotics:imipenem (Δε295 = −11,500 M^−1 cm^−1), meropenem (Δε297 = −10,940 M^−1 cm^−1), and cefotaxime (Δε264 = −27,250 M^−1 cm^−1). In this study, the D63, D2148, and D2573 inhibitors were tested. Hydrolysis of β-lactam antibiotics was detected by monitoring the variation in absorbance due to cleavage of the β-lactam ring in 50 mM, pH 7.0, phosphate buffer ([40], [41]). For hydrolysis of substrate (cefotaxime, imipenem, and meropenem) kinetics parameters, Km and kcat were calculated by using Michaelis Menten equations (equations 2 and 3). (2) V =Vmax [S]/Km + [S] (3) kcat = Vmax/E where E and S are the enzyme and substrate concentration, Km is the Michaelis-Mentent constant, kcat is the turnover number, and V and Vmax are the initial and maximum velocity of the hydrolysis, respectively.

CTX-M-15 [8] = biological target: T2, CTX-M-15; experiment: as above; details: inhibitor concentration as per IC50
Protocol: as §4, §5

NDM-1 [9] = biological target: T3, NDM-1; experiment: as above; details: inhibitor concentration as per IC50
Protocol: as §4, §5

TEM-1 [10] = biological target: T4, TEM-1; experiment: as above; details: inhibitor concentration as per IC50
Protocol: as §4, §5

Amp-C [11] = biological target: T5, Amp-C; experiment: as above; details: inhibitor concentration as per IC50
Protocol: as §4, §5

SHV-1 [12] = biological target: T6, SHV-1; experiment: as above; details: inhibitor concentration as per IC50
Protocol: as §4, §5

SMILES: O=C(O)c1ccccc1C(=O)N1CCN(c2nc(-c3ccccc3)ns2)CC1 [D2573, 2-{[4-(3-phenyl-1,2,4-thiadiazol-5-yl)piperazino]carbonyl}benzoic acid]
- IC50 (KPC-2 [1]): 0.667 nM
- IC50 (CTX-M-15 [2]): 0.731 nM
- IC50 (NDM-1 [3]): 0.624 nM
- IC50 (TEM-1 [4]): 0.634 nM
- IC50 (Amp-C [5]): 0.655 nM
- IC50 (SHV-1 [6]): 0.655 nM
- Km or Ki (KPC-2 [7]; cefotaxime): 549.1 μΜ
- kcat (KPC-2 [7]; cefotaxime): 0.454 S^−1
- Km or Ki (KPC-2 [7]; imipenem): 878.8 μΜ
- kcat (KPC-2 [7]; imipenem): 0.419 S^−1
- Km or Ki (KPC-2 [7]; meropenem): 2,786 μΜ
- kcat (KPC-2 [7]; meropenem): 1.02 S^−1
- Km or Ki (CTX-M-15 [8]; cefotaxime): 330.1 μΜ
- kcat (CTX-M-15 [8]; cefotaxime): 0.9055 S^−1
- kcat (CTX-M-15 [8]; imipenem): 1.454 S^−1
- Km or Ki (CTX-M-15 [8]; meropenem): 469.8 μΜ
- kcat (CTX-M-15 [8]; meropenem): 0.9091 S^−1
- Km or Ki (NDM-1 [9]; cefotaxime): 8,756 μΜ
- kcat (NDM-1 [9]; cefotaxime): 4.921 S^−1
- Km or Ki (NDM-1 [9]; imipenem): 301.3 μΜ
- kcat (NDM-1 [9]; imipenem): 3.875 S^−1
- Km or Ki (NDM-1 [9]; meropenem): 756.8 μΜ
- kcat (NDM-1 [9]; meropenem): 14.59 S^−1
- Km or Ki (TEM-1 [10]; cefotaxime): 905.2 μΜ
- kcat (TEM-1 [10]; cefotaxime): 1.056 S^−1
- Km or Ki (TEM-1 [10]; imipenem): 2,665 μΜ
- kcat (TEM-1 [10]; imipenem): 1.454 S^−1
- Km or Ki (TEM-1 [10]; meropenem): 2,129 μΜ
- kcat (TEM-1 [10]; meropenem): 1.563 S^−1
- Km or Ki (Amp-C [11]; cefotaxime): 1,522 μΜ
- kcat (Amp-C [11]; cefotaxime): 1.5 S^−1
- Km or Ki (Amp-C [11]; imipenem): 499 μΜ
- kcat (Amp-C [11]; imipenem): 1.158 S^−1
- Km or Ki (Amp-C [11]; meropenem): 553 μΜ
- kcat (Amp-C [11]; meropenem): 1.09 S^−1
- Km or Ki (SHV-1 [12]; cefotaxime): 608 μΜ
- kcat (SHV-1 [12]; cefotaxime): 0.8431 S^−1
- Km or Ki (SHV-1 [12]; imipenem): 1,138 μΜ
- kcat (SHV-1 [12]; imipenem): 0.958 S^−1
- Km or Ki (SHV-1 [12]; meropenem): 979 μΜ
- kcat (SHV-1 [12]; meropenem): 1.232 S^−1

SMILES: O=C(CN1C(=O)c2ccccc2S1(=O)=O)c1ccc(O)c(O)c1 [D63, 2-[2-(3,4-dihydroxyphenyl)-2-oxoethyl]-1H-1,2-benzisothiazole-1,1,3(2H)-trione]
- IC50 (KPC-2 [1]): 0.695 nM
- IC50 (CTX-M-15 [2]): 0.779 nM
- IC50 (NDM-1 [3]): 0.733 nM
- IC50 (TEM-1 [4]): 0.726 nM
- IC50 (Amp-C [5]): 0.609 nM
- IC50 (SHV-1 [6]): 0.649 nM
- Km or Ki (KPC-2 [7]; cefotaxime): 713 μΜ
- kcat (KPC-2 [7]; cefotaxime): 0.384 S^−1
- Km or Ki (KPC-2 [7]; imipenem): 489.1 μΜ
- kcat (KPC-2 [7]; imipenem): 0.39 S^−1
- Km or Ki (KPC-2 [7]; meropenem): 511.7 μΜ
- kcat (KPC-2 [7]; meropenem): 0.45 S^−1
- Km or Ki (CTX-M-15 [8]; cefotaxime): 742.7 μΜ
- kcat (CTX-M-15 [8]; cefotaxime): 0.7320 S^−1
- Km or Ki (CTX-M-15 [8]; imipenem): 480.5 μΜ
- kcat (CTX-M-15 [8]; imipenem): 5.572 S^−1
- Km or Ki (CTX-M-15 [8]; meropenem): 228.4 μΜ
- kcat (CTX-M-15 [8]; meropenem): 1.723 S^−1
- Km or Ki (NDM-1 [9]; cefotaxime): 410.8 μΜ
- kcat (NDM-1 [9]; cefotaxime): 1.833 S^−1
- Km or Ki (NDM-1 [9]; imipenem): 258.7 μΜ
- kcat (NDM-1 [9]; imipenem): 18.29 S^−1
- Km or Ki (NDM-1 [9]; meropenem): 1,052 μΜ
- kcat (NDM-1 [9]; meropenem): 9.282 S^−1
- Km or Ki (TEM-1 [10]; cefotaxime): 1,353 μΜ
- kcat (TEM-1 [10]; cefotaxime): 1.051 S^−1
- Km or Ki (TEM-1 [10]; imipenem): 673.1 μΜ
- kcat (TEM-1 [10]; imipenem): 1.194 S^−1
- Km or Ki (TEM-1 [10]; meropenem): 253.5 μΜ
- kcat (TEM-1 [10]; meropenem): 0.6169 S^−1
- Km or Ki (Amp-C [11]; cefotaxime): 1,522 μΜ
- kcat (Amp-C [11]; cefotaxime): 1.537 S^−1
- Km or Ki (Amp-C [11]; imipenem): 499.22 μΜ
- kcat (Amp-C [11]; imipenem): 1.158 S^−1
- Km or Ki (Amp-C [11]; meropenem): 553.8 μΜ
- kcat (Amp-C [11]; meropenem): 1.093 S^−1
- Km or Ki (SHV-1 [12]; cefotaxime): 1,375 μΜ
- kcat (SHV-1 [12]; cefotaxime): 1.621 S^−1
- Km or Ki (SHV-1 [12]; imipenem): 851 μΜ
- kcat (SHV-1 [12]; imipenem): 1.525 S^−1
- Km or Ki (SHV-1 [12]; meropenem): 2,881 μΜ
- kcat (SHV-1 [12]; meropenem): 1.928 S^−1

SMILES: O=C(c1ccccc1)C1CCN(C(=O)CN2C(=O)c3ccccc3C2=O)CC1 [D2148, 2-[2-(4-benzoylpiperidino) -2-oxoethyl]-1H-isoindole-1,3(2H)-dione]
- IC50 (KPC-2 [1]): 0.744 nM
- IC50 (CTX-M-15 [2]): 0.638 nM
- IC50 (NDM-1 [3]): 0.632 nM
- IC50 (TEM-1 [4]): 0.449 nM
- IC50 (Amp-C [5]): 0.714 nM
- IC50 (SHV-1 [6]): 0.587 nM
- Km or Ki (KPC-2 [7]; cefotaxime): 358.7 μΜ
- kcat (KPC-2 [7]; cefotaxime): 3.293 S^−1
- Km or Ki (KPC-2 [7]; imipenem): 301.8 μΜ
- kcat (KPC-2 [7]; imipenem): 3.44 S^−1
- Km or Ki (KPC-2 [7]; meropenem): 491 μΜ
- kcat (KPC-2 [7]; meropenem): 2.47 S^−1
- Km or Ki (CTX-M-15 [8]; cefotaxime): 670.6 μΜ
- kcat (CTX-M-15 [8]; cefotaxime): 838.6 S^−1
- Km or Ki (CTX-M-15 [8]; imipenem): 675.9 μΜ
- kcat (CTX-M-15 [8]; imipenem): 2,720 S^−1
- Km or Ki (CTX-M-15 [8]; meropenem): 9,333 μΜ
- kcat (CTX-M-15 [8]; meropenem): 17,974 S^−1
- Km or Ki (NDM-1 [9]; cefotaxime): 1,939 μΜ
- kcat (NDM-1 [9]; cefotaxime): 15.88 S^−1
- Km or Ki (NDM-1 [9]; imipenem): 995.4 μΜ
- kcat (NDM-1 [9]; imipenem): 20.6 S^−1
- Km or Ki (NDM-1 [9]; meropenem): 986.4 μΜ
- kcat (NDM-1 [9]; meropenem): 9.201 S^−1
- Km or Ki (TEM-1 [10]; cefotaxime): 757.7 μΜ
- kcat (TEM-1 [10]; cefotaxime): 6.332 S^−1
- Km or Ki (TEM-1 [10]; imipenem): 689.7 μΜ
- kcat (TEM-1 [10]; imipenem): 0.9853 S^−1
- Km or Ki (TEM-1 [10]; meropenem): 7,537 μΜ
- kcat (TEM-1 [10]; meropenem): 43.13 S^−1
- Km or Ki (Amp-C [11]; cefotaxime): 796.6 μΜ
- kcat (Amp-C [11]; cefotaxime): 3.401 S^−1
- Km or Ki (Amp-C [11]; imipenem): 1,136 μΜ
- kcat (Amp-C [11]; imipenem): 2.631 S^−1
- Km or Ki (Amp-C [11]; meropenem): 794 μΜ
- kcat (Amp-C [11]; meropenem): 2.637 S^−1
- Km or Ki (SHV-1 [12]; cefotaxime): 626.2 μΜ
- kcat (SHV-1 [12]; cefotaxime): 6.751 S^−1
- Km or Ki (SHV-1 [12]; imipenem): 618.4 μΜ
- kcat (SHV-1 [12]; imipenem): 5.535 S^−1
- Km or Ki (SHV-1 [12]; meropenem): 1,376 μΜ
- kcat (SHV-1 [12]; meropenem): 6.436 S^−1
